Values quoted from earlier work as cited in patent US11612669B2, “Disinfection method and apparatus” (University of Washington, priority 2020, dated 2023).

Tested on: microbes, viruses, and bacteria in blood plasma
Conditions: one micromolar solution, white light at 45,000 lux for more than one hour

## CN(C)c1ccc2nc3ccc(=[N+](C)C)cc-3sc2c1 [methylene blue]
  inactivation of microbes, viruses, and bacteria: can inactivate microbes, viruses, and bacteria
